Carcinogen call data for four compounds are collected here from PubChem BioAssay AID1259411 (Chemical Carcinogenesis Research Information System (CCRIS), 2018).

The subject of the data set is rodent carcinogenicity bioassays, tumor incidence. Nature of the data set: CCRIS carcinogenicity studies. The source says: The CCRIS database contains chemical records with carcinogenicity, mutagenicity, tumor promotion, and tumor inhibition test results. It was developed by the National Cancer Institute (NCI). Data are derived from studies cited in primary journals, current awareness tools, NCI reports, and other sources. Test results have been reviewed by experts in carcinogenesis and mutagenesis.
CCRIS provides historical information from the years 1985 - 2011. It is no longer updated.
This is an archive assay for CCRIS carcinogenicity studies.

The mark [1] stands for this setting: Species: MOUSE, Route: DERMAL, Tumor Site: Type of Lesion: INTEGUMENTARY SYSTEM (SKIN).

SMILES strings stand for the structures. Activity calls are given as the source filed them. No rule for the calls is given here.

For `Clc1cc2c(cc1Cl)Oc1cc(Cl)c(Cl)cc1O2`, the carcinogen call (Species: MOUSE, Strain/Sex: B6C3/FEMALE, Route: GAVAGE, Dose: 0, 2.5, 5 UG/KG IN CORN OIL 1/WK FOR 52 WK (STUDY DURATION: 110 WK), Dose: 0, 2.5, 5 UG/KG IN CORN OIL 1/WK FOR 52 WK (STUDY DURATION: 110 WK), Tumor Site: Type of Lesion: LIVER: HEPATOCELLULAR ADENOMA, HEPTOCELLULAR CARCINOMA) was “active; positive”; the carcinogen call (Species: MOUSE, Strain/Sex: B6C3/FEMALE, Route: INTRAPERITONEAL, Dose: 0, 1, 30, 60, UG/KG 1/WK FOR 5 WK BEGINNING AT 10 D OF AGE (STUDY DURATION: 78 WK), Dose: 0, 1, 30, 60, UG/KG 1/WK FOR 5 WK BEGINNING AT 10 D OF AGE (STUDY DURATION: 78 WK), Tumor Site: Type of Lesion: LIVER: HEPATOCELLULAR ADENOMA, THYMUS: LYMPHOMA) is “active; positive”; the carcinogen call (Species: MOUSE, Strain/Sex: B6C3/MALE, Route: GAVAGE, Dose: 0, 2.5, 5 UG/KG IN CORN OIL 1/WK FOR 52 WK (STUDY DURATION: 110 WK), Dose: 0, 2.5, 5 UG/KG IN CORN OIL 1/WK FOR 52 WK (STUDY DURATION: 110 WK), Tumor Site: Type of Lesion: LIVER: HEPATOCELLULAR CARCINOMA) is “active; positive”; the carcinogen call (Species: MOUSE, Strain/Sex: B6C3/MALE, Route: INTRAPERITONEAL, Dose: 0, 1, 30, 60, UG/KG 1/WK FOR 5 WK BEGINNING AT 10 D OF AGE (STUDY DURATION: 78 WK), Dose: 0, 1, 30, 60, UG/KG 1/WK FOR 5 WK BEGINNING AT 10 D OF AGE (STUDY DURATION: 78 WK), Tumor Site: Type of Lesion: LIVER: HEPATOCELLULAR ADENOMA, HEPTOCELLULAR CARCINOMA, THYMUS: LYMPHOMA) was “active; positive”; the carcinogen call (Species: MOUSE, Strain/Sex: B6C3F1/FEMALE, Route: GAVAGE, Dose: 0, 0.04, 0.2, 2.0 UG/KG SUSPENDED IN 9:1 CORN OIL-ACETONE, Dose: 0, 0.04, 0.2, 2.0 UG/KG SUSPENDED IN 9:1 CORN OIL-ACETONE, Tumor Site: Type of Lesion: LIVER: HEPATOCELLULAR CARCINOMA, THYROID GLAND: FOLLICULAR CELL ADENOMA) was “active; positive”; the carcinogen call (Species: MOUSE, Strain/Sex: B6C3F1/MALE, Route: GAVAGE, Dose: 0, 0.01, 0.05, 0.5 UG/KG SUSPENDED IN 9:1 CORN OIL-ACETONE, Dose: 0, 0.01, 0.05, 0.5 UG/KG SUSPENDED IN 9:1 CORN OIL-ACETONE, Tumor Site: Type of Lesion: LIVER: HEPATOCELLULAR CARCINOMA) was “active; positive”. Further, the carcinogen call was “active; positive” (Species: MOUSE, Strain/Sex: SWISS/FEMALE, Route: DERMAL, Dose: 0.005 UG IN ACETONE SUSPENSION 3/WK FOR 99 OR 104 WK (STUDY DURATION: 99 OR 104 WK), Tumor Site: Type of Lesion: INTEGUMENTARY SYSTEM (SUBCUTANEOUS TISSUE): FIBROSARCOMA); “equivocal” (Species: MOUSE, Strain/Sex: SWISS/MALE, Route: DERMAL, Dose: 0.001 UG IN ACETONE SUSPENSION 3/WK FOR 99 OR 104 WK (STUDY DURATION: 99 OR 104 WK), Tumor Site: Type of Lesion: INTEGUMENTARY SYSTEM (SUBCUTANEOUS TISSUE): FIBROSARCOMA); “active; positive” (Species: RAT, Strain/Sex: OSBORNE-MENDEL/FEMALE, Route: GAVAGE, Dose: 0, 0.01, 0.05, 0.5 UG/KG SUSPENDED IN 9:1 CORN OIL-ACETONE, Dose: 0, 0.01, 0.05, 0.5 UG/KG SUSPENDED IN 9:1 CORN OIL-ACETONE, Tumor Site: Type of Lesion: LIVER: NEOPLASTIC NODULE); “active; positive” (Species: RAT, Strain/Sex: OSBORNE-MENDEL/MALE, Route: GAVAGE, Dose: 0, 0.01, 0.05, 0.5 UG/KG SUSPENDED IN 9:1 CORN OIL-ACETONE, Dose: 0, 0.01, 0.05, 0.5 UG/KG SUSPENDED IN 9:1 CORN OIL-ACETONE, Tumor Site: Type of Lesion: THYROID GLAND: FOLLICULAR CELL ADENOMA); “active; positive; highest dose only” (Species: RAT, Strain/Sex: SPRAGUE-DAWLEY/FEMALE, Route: ORAL, Dose: 0, 3, 10, 22, 46, 100 NG/KG/D (STUDY DURATION: 2 YRS), Dose: 0, 3, 10, 22, 46, 100 NG/KG/D (STUDY DURATION: 2 YRS), Tumor Site: Type of Lesion: ORAL MUCOSA: SQUAMOUS CELL CARCINOMA); “inactive; negative” (Species: Rat, Strain/Sex: Harlan Sprague-Dawley/Female (50 dosed animals), Route: Gavage, Dose: 0, 100 ng/kg (Test material solvent: corn oil: acetone (99:1))). The carcinogen call by setting is: (Species: Rat, Strain/Sex: Harlan Sprague-Dawley/Female, Route: Gavage, Dose: 0, 3, 10, 22, 46, 100 ng/kg (Test material solvent: corn oil: acetone (99:1)), Dose: 0, 3, 10, 22, 46, 100 ng/kg (Test material solvent: corn oil: acetone (99:1)), Tumor Site: Type of Lesion: Liver: Hepatocellular adenoma (0/53, 0/54, 0/53, 1/53, 13/53, 2/50), Cholangiocarcinoma (0/53, 0/54, 0/53, 1/53, 4/53, 2) “active; positive; findings in pancreas and in liver for hepatocholangioma and cholangiom”; (Species: Rat, Strain/Sex: Spartan Sprague Dawley/Female (50/Experimental Group; 86 Controls), Route: Oral, Dose: 0, 1, 10, 100 ng/kg in food, 7 days a wk for 2 yr, Dose: 0, 1, 10, 100 ng/kg in food, 7 days a wk for 2 yr) “active; positive”.

With `O=[N+]([O-])c1ccc(-c2ccccc2)cc1`, the carcinogen call by setting is: (Species: DOG, Strain/Sex: MONGREL/FEMALE, Route: ORAL, Dose: 300 MG 3/WK FOR LIFE, Tumor Site: Type of Lesion: URINARY BLADDER: EPITHELIAL CARCINOMA) “active; positive”; (Species: RAT, Strain/Sex: SPRAGUE-DAWLEY/FEMALE, Route: SUBCUTANEOUS, Dose: 0, 50, 100 UMOL/KG IN DMSO 1/WK FOR 8 WK (STUDY DURATION: 62 WK), Dose: 0, 50, 100 UMOL/KG IN DMSO 1/WK FOR 8 WK (STUDY DURATION: 62 WK)) “inactive; negative”; (Species: RAT, Strain/Sex: SPRAGUE-DAWLEY/MALE, Route: SUBCUTANEOUS, Dose: 0, 50, 100 UMOL/KG IN DMSO 1/WK FOR 8 WK (STUDY DURATION: 62 WK), Dose: 0, 50, 100 UMOL/KG IN DMSO 1/WK FOR 8 WK (STUDY DURATION: 62 WK)) “inactive; negative”.

`c1cc2ccc3cc4cccc5ccc6cc(c1)c2c3c6c54`: the carcinogen call is “active; positive” under setting [1] and “active; positive” (Species: RAT, Strain/Sex: OSBORNE-MENDEL/FEMALE, Route: LUNG IMPLANT, Dose: 0, 0.16, 0.83 MG IN BEESWAX/TRIOCTANOIN (STUDY DURATION: LIFETIME), Dose: 0, 0.16, 0.83 MG IN BEESWAX/TRIOCTANOIN (STUDY DURATION: LIFETIME), Tumor Site: Type of Lesion: LUNG: EPIDERMOID CARCINOMA).

With `c1ccc2cc3c(ccc4ccccc43)cc2c1`, the carcinogen call under setting [1] is “active; positive”; the carcinogen call (Species: MOUSE, Route: IMPLANT, Tumor Site: Type of Lesion: URINARY BLADDER) is “active; positive”; the carcinogen call (Species: MOUSE, Route: ORAL, Tumor Site: Type of Lesion: LIVER, LUNG) was “active; positive”; the carcinogen call (Species: MOUSE, Route: SUBCUTANEOUS, Tumor Site: Type of Lesion: INJECTION SITE) was “active; positive”; the carcinogen call (Species: MOUSE, Strain/Sex: B6C3F1/MALE, Route: INTRAPERITONEAL, Dose: 0, 1600 NMOL IN 35 µL DMSO TOTAL DOSE AT 1 D (1/7 TOTAL DOSE), 8 D (2/7 TOTAL DOSE), AND 15 D (4/7 TOTAL DOSE) OF AGE (S, Tumor Site: Type of Lesion: LIVER: ADENOMA, CARCINOMA) was “active; positive”; the carcinogen call (Species: MOUSE, Strain/Sex: SWISS/MALE,FEMALE, Route: INTRAPERITONEAL, Dose: 0, 2800 NMOL TOTAL DOSE, D 1, 8, AND 15 OF LIFE, Dose: 0, 2800 NMOL TOTAL DOSE, D 1, 8, AND 15 OF LIFE, Tumor Site: Type of Lesion: LUNG: ADENOMA, MALIGNANT LYMPHOMA) is “active; positive”.
